Results on 1 molecule are retold here after patent US7247746B2, “Crystal forms of N-(trans-4-isopropylcyclohexylcarbonyl)-D-phenylalanine” (Novartis, AG, priority 2002, dated 2007).

Bounds are passed on as bounds.

The data set can be described thus: solubility of nateglinide in crystallisation solvents. In kind it is physicochemical. The source says:
First solvents in which nateglinide is readily soluble, i.e., in amounts of at least 1% by weight at an ambient temperature, include lower alcohols, such as methanol, ethanol and isopropanol. Polar solvents such as acetone, tetrahydrofuran, dioxane and dichloromethane can also be effective when used as the first solvent. Second solvents in which nateglinide is only poorly soluble, i.e., in amounts of 0.01% by weight or less, include water, hexane, heptane and diethyl ether. Where a mixed solvent is employed as the first solvent, a mixture of ethanol and toluene or a mixture of methanol and ethyl acetate is effective preferably in combination with water as the second solvent, and more preferably with water containing from about 0.5 to about 3% by weight of hydroxypropylmethylcellulose. The amount of nateglinide in the solvent ranges preferably from 1 to 50% by weight of the resulting mixture. If the amount of nateglinide is more than 50% by weight then the slurry properties of the initial suspension are poor and it will be difficult to agitate the mixture and dissolve the solid. On the other hand, it is not efficient in terms of the volume of the solvent required to use less than 1% of nateglinide by weight. […]

On to `CC(C)[C@H]1CC[C@H](C(=O)N[C@H](Cc2ccccc2)C(=O)O)CC1` [nateglinide, N-(trans-4-isopropylcyclohexylcarbonyl)-D-phenylalanine], for which the “amount in which nateglinide is readily soluble (first solvents)” value (at an ambient temperature, methanol, ethanol, isopropanol, also acetone, tetrahydrofuran, dioxane, dichloromethane) is given as “at least 1 % by weight”. For the same molecule, the “amount in which nateglinide is only poorly soluble (second solvents)” value (water, hexane, heptane and diethyl ether) is listed as no more than 0.01 % by weight.
